Calls of active or inactive are those of the source. The rule behind the calls is not given here.
Tests used:
[1] = Cytotoxicity against human SiHa cells by MTT assay; assay type: functional, cell-based
B16-F10 [2] = assay: Induction of apoptosis in mouse B16F10 cells assessed as caspase-3 activation using Ac-DEVD-pNA as substrate by spectrophotometric analysis; assay type: functional
[3] = Cytotoxicity against mouse B16F10 cells by MTT assay; assay type: functional, cell-based; details: B16-F10
[4] = Cytotoxicity against human Chang cells by MTT assay; assay type: toxicity, cell-based
B16-F10 [5] = assay: Induction of apoptosis in mouse B16F10 cells assessed as formation of organized shedding vesicles by microscopic analysis; assay type: functional, cell-based
B16-F10 [6] = assay: Effect on tubulin gene expression in mouse B16F10 cells by GenArise analysis; assay type: functional, cell-based
B16-F10 [7] = assay: Induction of changes in cytoskeleton and cell division processes related gene expression in mouse B16F10 cells by GenArise analysis; assay type: functional, cell-based
B16-F10 [8] = assay: Induction of changes in cell death related gene expression in mouse B16F10 cells by GenArise analysis; assay type: functional, cell-based

SMILES	IC50 [1] [µM]	Activity (B16-F10 [2]) [%]	IC50 [3] [µM]	IC50 [4] [µM]	Activity (B16-F10 [5])	Activity (B16-F10 [6])	Activity (B16-F10 [7])	Activity (B16-F10 [8])
COc1ccc(N2C(=O)[C@@H](OC)[C@H]2c2ccc([N+](=O)[O-])cc2)cc1 (relative stereo)	8.13	88	2.08	> 10	–	–	–	–
COc1ccc(N2C(=O)[C@@H](OC)[C@H]2c2ccc(C)cc2)cc1 (relative stereo)	0.73	–	4.12	3.92	–	–	–	–
COc1ccc([C@@H]2[C@H](OC)C(=O)N2c2ccc(OC)cc2)cc1 (relative stereo)	6.36	–	2.05	8.38	–	–	–	–
O=C1C(Oc2ccccc2)C(c2ccc(Cl)cc2)N1c1nc2ccccc2s1 (racemic)	0.09	–	0.31	0.23	–	–	–	–
COc1ccc(N2C(=O)[C@@H](OC)[C@H]2c2ccc(Cl)cc2)cc1 (relative stereo)	8.61	–	> 10	3.41	–	–	–	–
COc1ccc(N2C(=O)[C@@H](Oc3ccccc3)[C@H]2c2ccc(C)cc2)cc1 (relative stereo)	0.07	100	1.21	> 10	Active	Active	Active	Active
COc1ccc([C@@H]2[C@H](Oc3ccccc3)C(=O)N2c2ccc(OC)cc2)cc1 (relative stereo)	0.42	–	9.7	0.63	–	–	–	–
CC[C@]1(O)C[C@H]2CN(CCc3c([nH]c4ccccc34)[C@@](C(=O)OC)(c3cc4c(cc3OC)N(C=O)[C@H]3[C@@](O)(C(=O)OC)[C@H](OC(C)=O)[C@]5(CC)C=CCN6CC[C@]43[C@@H]65)C2)C1 [VINCRISTINE]	0.01	–	0.01	0.01	–	–	–	–
O=C1C(Oc2ccccc2)C(c2ccc([N+](=O)[O-])cc2)N1c1nc2ccccc2s1 (racemic)	0.12	–	0.45	0.07	–	–	–	–
O=C1C(Oc2ccccc2)C(c2ccco2)N1c1nc2ccccc2s1 (racemic)	0.33	93	0.34	0.017	–	–	–	–
COc1ccc(N2C(=O)[C@@H](Oc3ccccc3)[C@H]2c2ccc([N+](=O)[O-])cc2)cc1 (relative stereo)	3.64	–	0.87	2.08	–	–	–	–
O=C1C(Oc2ccccc2)C(c2ccncc2)N1c1nc2ccccc2s1 (racemic)	1.34	–	1.7	1.03	–	–	–	–
COc1ccc(N2C(=O)[C@@H](OC)[C@H]2c2ccc(F)cc2)cc1 (relative stereo)	2.89	–	2.82	7.57	–	–	–	–
COc1ccc(N2C(=O)[C@@H](Oc3ccccc3)[C@H]2c2ccccc2)cc1 (relative stereo)	0.2	–	0.28	2.85	–	–	–	–
COc1ccc(N2C(=O)[C@@H](Oc3ccccc3)[C@H]2c2ccc(F)cc2)cc1 (relative stereo)	0.08	–	3.26	0.74	–	–	–	–
COc1ccc(N2C(=O)[C@@H](OC)[C@H]2c2ccccc2[N+](=O)[O-])cc1 (relative stereo)	7.29	–	2.91	9.75	–	–	–	–
COc1ccc(N2C(=O)[C@@H](Oc3ccccc3)[C@H]2c2ccccc2[N+](=O)[O-])cc1	0.22	–	4.82	3.73	–	–	–	–
COc1cc([C@@H]2c3cc4c(cc3[C@H](O)[C@H]3COC(=O)[C@H]23)OCO4)cc(OC)c1OC [PODOFILOX]	–	100	–	–	Active	–	–	–
